# Results taken from patent publication US20230097801A1, “METHODS OF INCREASING CELL PHAGOCYTOSIS” (National Health Research Institutes, priority 2021, published 2023).
# How the values were obtained:
# CD47 [1] = assay: Flow cytometry, anti-human CD47 CC2C6 antibody binding on Raji cell surface; format: cell-based; conditions: for IC50: B-cell Lymphoma (Raji cells), 4 days treatment, read-out: IC50, inhibition of CC2C6 binding; for inhibition of binding of anti-human CD47 antibody CC2C6 (in words): Raji cells
# Protocol: (§1) Binding between CD47 and SIRPα was studied by measuring the level of CD47 binding using any suitable method. Flow cytometric analysis is useful to quantify the level of binding of CD47 to antibody CC2C6, which is then subjected to an immune-staining procedure using fluorochrome-conjugated secondary antibody followed by analysis of the immune-staining signal with a flow cytometry instrument to obtain the level of the CD47-CC2C6 binding. In another method, analysis of CD47 is performed using SIRPα-Fc formed from SIRPα fused with human IgG1, which is then subjected to an immune-staining procedure using fluorochrome-conjugated secondary antibody against human IgG1, followed by analysis of the immune-staining signal. SIRPα is expressed on the surface of a myeloid cell such as macrophage, monocyte, neutrophil, or dendritic cell. Alternatively, SIRPα is fused with human IgG1 to form a SIRPα-Fc recombinant protein. […] An anti-cancer agent (e.g., rituximab) can be used together with a compound of formula (I). Useful anti-cancer agents are described above including anti-PD-L1 antibodies, anti-CD20 antibodies, anti-HER2 antibodies, anti-EGFR antibodies, and anti-CD47 antibodies. Other suitable anti-cancer agents are chemotherapeutic agents such as doxorubicin, epirubicin, idarubicin, methotrexate, mitoxantrone, oxaliplatin, and cyclophosphamide.
# Human B-cell lymphoma Raji cells were purchased from BCRC, Taiwan. Raji cells were maintained at 37° C. under 5% CO2 in RPMI-1640 medium (Hyclone, Marlborough, Mass.) supplemented with 10% fetal bovine serum (FBS) (SAFC, Sigma-Aldrich, St. Louis, Mo.) containing 2 mM L-glutamine (Hyclone, Marlborough, Mass.), 10 mM HEPES (Hyclone, Marlborough, Mass.) and 1 mM sodium pyruvate (Hyclone, Marlborough, Mass.).
# (§2) Antibody conjugates and extracellular domain of SIRPα used to analyze cell surface CD47 binding include anti-human CD47 CC2C6, 2D3, recombinant human SIRPα/CD172a Fc chimer protein, and anti-human IgG Fc. To determine inhibition of CD47 binding, cancer cells were treated with compounds of formula (I) at various concentrations for 4 days. Thereafter, the cells were washed with PBS containing 0.5% BSA (FACS buffer) followed by incubation with fluorochrome-labeled antibodies to human CD47 (i.e., CC2C6 and 2D3) at 1:50 dilution in FACS buffer for 30 minutes at 4° C. Compounds of formula (I) produced a dose-dependent inhibition of anti-CD47 CC2C6 antibody that recognized CD47 and SIRPα binding site on the tumor cell surface including B-cell lymphoma Raji cells, colon cancer cells DLD-1, and ovarian cancer SK-OV-3 cells (see FIGS. 1A, 1B, and 1C, respectively).
# CD47 [2] = assay: Flow cytometry, anti-human CD47 2D3 control antibody binding on Raji cell surface; format: cell-based; conditions: Raji cells
# Protocol: as §2
# Mouse pk profiles = format: in vivo; conditions: for clearance / Cmax / bioavailability / half-life: plasma; for bioavailability: PO (30 mg/kg) vs IV (2 mg/kg); for half-life: read-out: T1/2 (h) Plasma (converted)
# CD47 [3] = assay: Flow cytometry, anti-human CD47 CC2C6 antibody binding on SK-OV-3 cell surface; format: cell-based; conditions: for inhibition of binding of anti-human CD47 antibody CC2C6 (in words): SK-OV-3 cells; for IC50: Ovarian Cancer (SK-OV3 cells), 4 days treatment, read-out: IC50, inhibition of CC2C6 binding
# Protocol: as §1
# SK-OV-3 cells were purchased from ATCC (Manassas, Va.). SK-OV-3 cells were maintained at 37° C. under 5% CO2 in McCoy's 5a medium (Gibco, ThermoFisher, Waltham, Mass.) with 10% fetal bovine serum (FBS) (Sigma-Aldrich, St Louis, Mo.), and 2 mM L-glutamine.
# as §2
# CD47 [4] = assay: Flow cytometry, anti-human CD47 CC2C6 antibody binding on DLD-1 cell surface; format: cell-based; conditions: for IC50: Colon Cancer (DLD-1 cells), 4 days treatment, read-out: IC50, inhibition of CC2C6 binding; for inhibition of binding of anti-human CD47 antibody CC2C6 (in words): DLD-1 cells
# Protocol: as §1
# Human colon cancer DLD-1 cells were obtained from NHRI IBPR HTS Lab, Taiwan. DLD-1 cells were maintained under the same conditions described immediately above.
# as §2
# [5] = system: human B-cell lymphoma Raji xenograft tumor; assay: Raji xenograft dose-dependent efficacy of Compound 34 with rituximab (6 weeks); format: in vivo, NOD/SCID mice; conditions: rituximab 10 mg/kg alone
# Source text: (§3) Human B-cell lymphoma Raji cells were used to evaluate the efficacy of Compound 34 and rituximab in treating cancer cells. Prior to injection into animals, the cancer cells were detected as free of Mycoplasma spp. NOD/SCID mice (BioLasco, Taiwan) were used for in vivo experiments due to their higher affinity of SIRPα to human CD47. The mice used in these studies were housed in Institutional Animal Care and Use Committees-approved facility at National Health Research Institutes in accordance with guidelines for the care and use of laboratory animals.
# To evaluate dose-dependent anti-tumor efficacy of Compound 34 in combination with rituximab, mice were treated with vehicle control, rituximab, or rituximab in combination with Compound 34 for 6 weeks. A dosing vehicle for Compound 34 was prepared using 10% DMA: 40% PEG400: 50% (1% CMC) (v/v/v) and was dosed orally (p.o.) at 10 mg/kg, 30 mg/kg, and 100 mg/kg once a day, 5 days a week (Q.D.*5). Rituximab (Roche-Genentech, South San Francisco, Calif.) stock solution was diluted with PBS and dosed at 10 mg/kg twice a week (2QW) by intraperitoneal (i.p.) injection. Cancer growth was measured by volume with an electronic caliper. The volume was calculated as L×W^2/2, in which L is the length of the tumor and W is its width. Tumor size and animal body weight were measured once a week after cancer cell inoculation. Cancer response at the end of the study was calculated as tumor growth inhibition (TGI) using (1−T/C)*100, in which T is the mean tumor volume (mm^3) of the test group, and C is the mean tumor volume (mm^3) of the vehicle-treated group. The treatment response rate were classified into 4 categories: complete regression (CR), in which the tumor was undetectable at the end of study; partial regression (PR), in which the tumor volume was less than or equal to 30% of the initial tumor volume at the end of study; stable disease (SD), in which the tumor volume was between […] of the initial tumor volume at the end of study; progression disease (PD), in which the tumor volume was greater than 50% of the initial tumor volume at the end of study. An overall response rate (ORR) is calculated based on the CR and PR groups. […] When treated with Compound 34 (at 100 mg/kg) in combination with rituximab, 6 out of 10 mice (60%) fell under the CR group, and 1 out of 10 mice (10%) fell under the PR group. On the other hand, no animals had CR (0%) and only 2 out of 10 mice (20%) were PR by rituximab (at 10 mg/kg), resulting in 70% ORR by the combination treatment and 20% by antibody only.
# [6] = system: human B-cell lymphoma Raji xenograft tumor; assay: Raji xenograft anti-tumor efficacy and survival study (3 weeks treatment); format: in vivo, NOD/SCID mice; conditions: Compound 34 100 mg/kg p.o. QD*5, rituximab 10 mg/kg i.p. 2QW
# Source text: as §3
# One million Raji cells in culture medium and matrigel (1:1, v/v) were injected subcutaneously into the left flank region of the mice (n=7 to 10 animals per group). Treatments were initiated after randomization with inclusion of tumors at approximately 100 mm^3. A dosing vehicle for Compound 34 was prepared using 10% DMA: 40% PEG400: 50% (1% CMC) (v/v/v) and was dosed orally (p.o.) at 100 mg/kg once a day, 5 days a week (Q.D.*5). Rituximab (Roche-Genentech, South San Francisco, Calif.) stock solution was diluted with PBS and dosed at 10 mg/kg twice a week (2QW) by intraperitoneal (i.p.) injection.
# To evaluate anti-tumor efficacy and survival rates, mice were treated with vehicle control, 10 mg/kg rituximab (2QW, i.p.), 100 mg/kg Compound 34 (QD*5), or rituximab in combination with Compound 34. Treatment was discontinued at the end of 3 weeks. The mice were monitored for cancer growth and body weight once a week. Cancer growth was measured by volume with an electronic caliper. The volume was calculated as L×W^2/2, in which L is the length of the tumor and W is its width. Tumor size and animal body weight were measured once a week after cancer cell inoculation. Cancer response at the end of the study was calculated as tumor growth inhibition (TGI) using (1−T/C)*100, in which T is the mean tumor volume (mm^3) of the test group, and C is the mean tumor volume (mm^3) of the vehicle-treated group. […] For the survival study, treatment was discontinued at the end of 3 weeks. Thereafter, mice were followed up for tumor growth and body weight once a week. The mice were then sacrificed when tumor volume reached 2,000 mm^3 or body weight loss was greater than 10%. Kaplan-Meier plots were used as the study end point to calculate percentage of animals remaining in the study in term of the time. The median survival days for vehicle control and Compound 34 were 15.5 days and 18 days, respectively (FIG. 5E). Rituximab prolonged median survival days to 28 days after treatment discontinued (FIGS. 5C and 5E). Importantly, the combination of rituximab and Compound 34 further prolonged median survival days to 47 days (FIGS. 5D and 5E).
Compound,IC50 (CD47 [1]),inhibition of binding of anti-human CD47 antibody CC2C6 (in words) (CD47 [1]),inhibition of binding of anti-human CD47 antibody 2D3 (in words) (CD47 [2]),AUC Plasma (Mouse pk profiles; IV (2 mg/kg)),AUC Plasma (Mouse pk profiles; PO (30 mg/kg)),clearance (Mouse pk profiles; IV (2 mg/kg)),Cmax (Mouse pk profiles; PO (30 mg/kg)),bioavailability (Mouse pk profiles),half-life (Mouse pk profiles; PO (30 mg/kg)),inhibition of binding of anti-human CD47 antibody CC2C6 (in words) (CD47 [3]),IC50 (CD47 [4]),inhibition of binding of anti-human CD47 antibody CC2C6 (in words) (CD47 [4]),IC50 (CD47 [3]),further results
O=C1NC[C@H](c2ccc(-c3cnc(C(F)(F)F)s3)cc2)N1c1ccc2[nH]cnc2c1 [Compound 30],840 nM,effectively inhibited,did not inhibit,3037 ng·h/g,21170 ng·h/g,12.7 mL/min/kg,1780 ng/mL,47%,5.2 h,effectively inhibited,1010 nM,effectively inhibited,–,–
O=C1NC[C@H](c2ccc(-c3csc(C(F)(F)F)c3)cc2)N1c1ccc2[nH]cnc2c1 [Compound 32],1380 nM,effectively inhibited,did not inhibit,8185 ng·h/g,68659 ng·h/g,4 mL/min/kg,3720 ng/mL,56%,12.7 h,effectively inhibited,790 nM,effectively inhibited,200 nM,–
"CCCOc1ccc([C@H]2CNC(=O)N2c2ccc3[nH]cnc3c2)cc1 [PQ912, reference compound]",5950 nM,–,–,520 ng·h/g,6359 ng·h/g,64 mL/min/kg,2020 ng/mL,82%,2.8 h,–,3190 nM,–,150 nM,–
Rituximab: an anti-human CD20 antibody (Roche-Genentech),–,–,–,–,–,–,–,–,–,–,–,–,–,"CR (complete regression), rate [5]: 0 (0%); ORR (overall response rate, CR and PR), rate [5]: 20%; PD (progression disease), rate [5]: 80%; PR (partial regression), rate [5]: 20%; CR (complete regression), number of mice ([5]; of 10 mice): 0 (0%); ORR (overall response rate, CR and PR), number of mice ([5]; of 10 mice): 2; PD (progression disease), number of mice ([5]; of 10 mice): 8; PR (partial regression), number of mice ([5]; of 10 mice): 2; CR (complete regression), rate ([5]; listed as rituximab): 0%; tumor growth inhibition (TGI, % of control) ([6]; 3 weeks): 78.5%; median survival days ([6]; treatment discontinued at 3 weeks): 28 days"
